Assay results: patent US11413278B2, “Compounds and methods for promoting stress resistance” (priority 2015, dated 2022)
Read-outs that look alike come from different tables or passages of the source.

Key:
LC3A/B puncta = test: Autophagy induction analysis (LC3A/B puncta immuno-staining); assay type: cell-based, human
Procedure, shortened: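 WI-38 cells were treated with compounds for 24 hrs, then immunostained for LC3A/B (overnight, 4° C) with DAPI counterstain and imaged by high-content microscopy. Experiment 1 used total puncta intensity. Experiment 2 used LAMP2-colocalized (lysosomal) puncta. Intensity was normalized to nuclei count.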

human PARP1 = target: T1, human PARP1 (Homo sapiens, UniProt P09874); test: PARP inhibitor assay (HT Fluorescent Homogeneous PARP Inhibition Assay Kit); assay type: biochemical; conditions: for L = PARP inhibition: score
T1 construct: purchased Trevigen
T1 sequence (P09874 whole entry): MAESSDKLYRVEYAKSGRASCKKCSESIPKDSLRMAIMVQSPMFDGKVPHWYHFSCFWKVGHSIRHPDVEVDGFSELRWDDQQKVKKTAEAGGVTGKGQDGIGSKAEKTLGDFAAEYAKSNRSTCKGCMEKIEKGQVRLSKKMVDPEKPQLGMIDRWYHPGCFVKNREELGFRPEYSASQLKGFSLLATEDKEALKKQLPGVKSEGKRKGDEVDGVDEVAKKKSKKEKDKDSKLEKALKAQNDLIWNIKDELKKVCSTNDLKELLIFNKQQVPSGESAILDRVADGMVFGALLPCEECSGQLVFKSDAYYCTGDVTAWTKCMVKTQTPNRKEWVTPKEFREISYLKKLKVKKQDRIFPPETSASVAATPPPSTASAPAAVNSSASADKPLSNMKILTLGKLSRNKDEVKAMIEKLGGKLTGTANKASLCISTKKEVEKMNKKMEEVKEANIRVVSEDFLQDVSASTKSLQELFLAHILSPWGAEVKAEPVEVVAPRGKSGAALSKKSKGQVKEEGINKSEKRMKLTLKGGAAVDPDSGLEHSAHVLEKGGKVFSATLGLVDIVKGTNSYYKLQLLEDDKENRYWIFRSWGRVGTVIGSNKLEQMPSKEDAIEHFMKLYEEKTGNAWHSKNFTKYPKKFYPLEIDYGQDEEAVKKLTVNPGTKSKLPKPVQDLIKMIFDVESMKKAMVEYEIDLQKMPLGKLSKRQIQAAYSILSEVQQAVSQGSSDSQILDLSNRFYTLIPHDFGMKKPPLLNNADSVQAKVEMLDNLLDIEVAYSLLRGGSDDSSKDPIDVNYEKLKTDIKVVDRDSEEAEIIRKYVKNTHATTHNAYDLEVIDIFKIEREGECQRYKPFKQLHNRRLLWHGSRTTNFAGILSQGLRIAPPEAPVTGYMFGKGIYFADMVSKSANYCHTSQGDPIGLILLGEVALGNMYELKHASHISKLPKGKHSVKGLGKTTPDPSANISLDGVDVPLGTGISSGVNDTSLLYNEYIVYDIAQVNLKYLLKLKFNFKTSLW
Procedure, shortened: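 Human PARP1 with NAD and activated DNA, compounds at 10 μM final, 30 min at room temperature in dark. Resazurin/diaphorase cycling mix then added for 1 hr in dark before stop buffer; fluorescent homogeneous kit read-out.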

NRF2 [1] = test: in vitro; assay type: cell-based, human; conditions: for NRF2-dependency for H2O2-resistance, at 10 uM - with H2O2, 2nd experiment: experiment 2 (2nd); for NRF2-dependency for H2O2-resistance, 2nd experiment: with H2O2, NRF2 knockdown in WI-38 cells
NRF2 [2] = test: qPCR analysis of NRF2-regulated genes; assay type: cell-based, human; conditions: for fold induction at 10 µM: Homo sapiens
Procedure, shortened: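 WI-38 cells treated with compound at 10 μM for 24 hrs, then processed by Cells-to-Ct for RNA isolation, RT and qPCR of NRF2-regulated genes (HMOX1, NQO1, GCLC, GSTM1). Expression normalized to B2M, PPIA and GAPDH; siRNA knockdown of FOXO3 or NRF2 (10 nM) preceded treatment in some runs.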

[3] = WI-38 cells, 10 μM, 24 hrs, n=4, qPCR normalized by B2M, read-out: GCLC Normalized fold change
[4] = WI-38 cells, 10 μM, 24 hrs, n=4, qPCR normalized by B2M, read-out: GSTM1 Normalized fold change
[5] = WI-38 cells, 10 μM, 24 hrs, n=4, qPCR normalized by B2M, read-out: HMOX1 Normalized fold change
[6] = WI-38 cells, 10 μM, 24 hrs, n=4, qPCR normalized by B2M, read-out: NQO1 Normalized fold change
[7] = 10 uM, YES = resistance reduced by at least 50%, partial = 25% to 50%
[8] = 24 h, Assay 12(o), at 10 uM, qPCR, read-out: Induction of NRF2-regulated genes: HMOX1 normalized fold-change
[9] = rounded fold change, WI-38 cells, 10 μM, 24 hrs (RP11 for Gr-1D, RP29 for Gr-4D), read-out: Summary of effects on NRF2-regulated genes: HMOX1
[10] = 10 μM, 24 hrs, WI-38 cells, qPCR, normalized to B2M, n = 4, read-out: HMOX1 expression, normalized fold change (NRF2-regulated gene)

SMILES | H = Potential Autophagy Induction (LC3A/B puncta; score) | H = Potential Autophagy Induction (LC3A/B puncta; summary score) | L = PARP inhibition (human PARP1) | J = NRF2-dependency for H2O2-resistance (NRF2 [1]; score) | J = NRF2-dependency for H2O2-resistance (NRF2 [1]; summary score) | F = Potential NRF2 Activation (NRF2 [2]; 2-point score) | fold induction at 10 µM (NRF2 [2]; [3]) | fold induction at 10 µM (NRF2 [2]; [4]) | fold induction at 10 µM (NRF2 [2]; [5]) | fold induction at 10 µM (NRF2 [2]; [6]) | F = Potential NRF2 Activation (NRF2 [2]; summary score) | NRF2-dependency for H2O2-resistance, at 10 uM - with H2O2, 2nd experiment (NRF2 [1]; 10 uM) | NRF2-dependency for H2O2-resistance, 2nd experiment (NRF2 [1]; [7]) | fold induction at 10 µM (NRF2 [2]; [8]) | fold induction at 10 µM (NRF2 [2]; [9]) | fold induction at 10 µM (NRF2 [2]; [10]) | other results
Cc1cc(N)n(-c2ccccc2C(=O)O)n1 [Gr-6A] | 0 | 0 | 1 | 0 | 0 | 0 | 1.03 | 1.09 | 1.1 | 1.02 | 0 | – | – | – | – | – | Inhibition of PARP1 (human PARP1; 10 μM, in vitro): inhibitors of PARP1
O=C(/C=C/c1cn(-c2ccccc2)nc1-c1cccnc1)c1ccccc1 [Gr-6B] | 0 | 0 | 0 | 1 | 1 | 2 | 0.797 | 1.22 | 1.88 | 1.52 | 2 | 2nd, partial. | partial. | 1.88 | 1.88 | 1.88 | NRF2-dependency for H2O2-resistance, at 10 uM (experiment 3) - with & without H2O2 (NRF2 [1]; 10 uM, experiment 3, with & without H2O2): YES; NRF2-dependency for H2O2-resistance (experiment 3) (NRF2 [1]; 10 uM, with & without H2O2, NRF2 knockdown in WI-38 cells, YES = resistance reduced by at least 50%, partial = 25% to 50%): YES; Assay 17: NRF2-dependency for H2O2-resistance (NRF2 [1]; 10 uM, YES/NO): YES; NRF2-dependency of H2O2-resistance (NRF2 siRNA knockdown) (NRF2 [1]; at least 2 of 3 independent experiments): significantly attenuate; Potential NRF2 Activation (>=2 target genes induced, by >=1.5-fold) (NRF2 [2]; Assay 13(p)): YES; fold induction at 10 µM (NRF2 [2]; 24 h, Assay 12(o), at 10 uM, qPCR, read-out: Induction of NRF2-regulated genes: NQO1 normalized fold-change): 1.52; fold induction at 10 µM (NRF2 [2]; rounded fold change, WI-38 cells, 10 μM, 24 hrs (RP29 for Gr-4D), read-out: Summary of effects on NRF2-regulated genes: NQO1): 1.52; fold induction at 10 µM (NRF2 [2]; 10 μM, 24 hrs, WI-38, read-out: Expression of at least two NRF2 target genes): > 1.5; fold induction at 10 µM (NRF2 [2]; 10 μM, 24 hrs, WI-38 cells, qPCR, normalized to B2M, n = 4, read-out: NQO1 expression, normalized fold change (NRF2-regulated gene)): 1.52
N=C1S/C(=C\c2cn(-c3ccccc3)nc2-c2cccs2)C(=O)N1c1nccs1 [Gr-6C] | 0 | 0 | 0 | 0 | 0 | 0 | 0.331 | 0.914 | 2.09 | 0.87 | 0 | 2nd, partial. | partial. | 2.09 | 2.09 | 2.09 | fold induction at 10 µM (NRF2 [2]; 24 h, Assay 12(o), at 10 uM, qPCR, read-out: Induction of NRF2-regulated genes: GCLC normalized fold-change): 0.33; fold induction at 10 µM (NRF2 [2]; rounded fold change, WI-38 cells, 10 μM, 24 hrs, read-out: Summary of effects on NRF2-regulated genes: GCLC): 0.33; fold induction at 10 µM (NRF2 [2]; 10 μM, 24 hrs, WI-38 cells, qPCR, normalized to B2M, n = 4, read-out: GCLC expression, normalized fold change (NRF2-regulated gene)): 0.33
